biological target: T1, ALDH2 (Homo sapiens, UniProt P05091); test: Selectivity biochemical assay, NAD(P)H-Glo Detection System
T1 sequence (P05091 18-517): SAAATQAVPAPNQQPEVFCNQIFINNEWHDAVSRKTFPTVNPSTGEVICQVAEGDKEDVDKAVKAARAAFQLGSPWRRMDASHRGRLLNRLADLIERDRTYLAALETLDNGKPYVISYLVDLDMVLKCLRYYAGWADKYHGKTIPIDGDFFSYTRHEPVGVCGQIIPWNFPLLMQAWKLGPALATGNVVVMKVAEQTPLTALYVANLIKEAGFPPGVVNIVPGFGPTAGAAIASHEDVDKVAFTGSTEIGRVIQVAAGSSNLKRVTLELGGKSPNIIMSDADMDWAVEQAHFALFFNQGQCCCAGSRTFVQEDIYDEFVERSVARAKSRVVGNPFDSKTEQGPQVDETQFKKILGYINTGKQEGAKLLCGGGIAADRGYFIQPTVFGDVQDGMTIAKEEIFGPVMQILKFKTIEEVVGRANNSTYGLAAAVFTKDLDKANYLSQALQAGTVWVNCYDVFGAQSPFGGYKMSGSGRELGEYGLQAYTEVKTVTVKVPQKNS
Description: Materials: ALDH2 was purchased from Abnova. Tris(hydroxymethyl)aminomethane (Tris) was purchased from MP Biomedicals. TCEP, ethylenediaminetetraacetic acid (EDTA), propionaldehyde, DMSO and Tween-20 were purchased from Sigma. Nicotinamide adenine dinucleotide (NAD) was obtained from Abcam. The NAD(P)H-Glo™ Detection System was purchased from Promega. White, non-binding surface, 384 well plates were supplied by Corning (#3574).
Method: Inhibition of ALDH1A3 was assessed using the NAD(P)H-Glo™ Detection System (Cat. No. G9062) from Promega. This assay detects the production of NADH from NAD by ALDH1A3 via the coupled enzymatic conversion of a proluciferin reductase substrate to generate a luminescent signal. Inhibition of ALDH1A3 by small molecule inhibitors will result in reduction or abrogation of luminescence signal increase above background. Inhibition of ALDH1A1, ALDH1A2 and ALDH2 (selectivity assays) were assessed using the same assay.
Compounds were dosed into Corning 384 well assay plates using an Echo acoustic dispenser to give 10 point curves in a 3-fold dilution series. Compounds were dispensed from a 20 mM DMSO stock and initially screened at a top concentration of 20 μM (ALDH1A3) or 250 μM (ALDH1A1, ALDH1A2 & ALDH2). Enzyme was added to the plate in a 5 μL volume, according to the final concentrations in table 1 below, and pre-incubated with compound for 30 minutes at room temperature before the addition of 5 μL of the substrate (propionaldehyde) and cofactor (NAD), to effect final concentrations equal to the Km as shown in Table 1. The assay buffer used consisted of 40 mM Tris for 1A1 (pH 7.6), 1A2 (pH 7.6) and 1A3 (pH 9.0) and 10 mM Tris for ALDH2 (pH 8.0) supplemented with 1 mM TCEP, 0.01% Tween-20, 0.1 mM EDTA. The reaction mix was incubated at 26° C. on a shaking incubator for 30 minutes before being stopped by the addition of 10 μL of the Promega detection reagent and 100×IC50 of inhibitors of the respective isoforms. After stopping the reaction the plate was incubated for 60 minutes at room temperature and the luminescence signal read on a PheraStar FS microplate reader (BMG Labtech) and resulting IC50 values were calculated using Dotmatics software.
Enzyme, substrate and cofactor concentrations were selected to ensure the reaction ran under initial velocity conditions.

SMILES	IC50 [µM]
O=C1CCc2cc(NC(=O)c3sc(N4CCNCC4)nc3-c3cccc(F)c3)ccc2N1 [ALDHI-1005, 4-(3-fluorophenyl)-N-(2-oxo-3,4-dihydro-1H-quinolin-6-yl)-2-piperazin-1-yl-thiazole-5-carboxamide]	≥ 100
O=C1CCc2cc(OCCN3C(=O)CCC3c3ccccc3)ccc2N1 (centres unmarked) [ALDHI-2051, 6-[2-(2-oxo-5-phenyl-pyrrolidin-1-yl)ethoxy]-3,4-dihydro-1H-quinolin-2-one]	≥ 100
O=C1CCc2cc(OCCN3CCC3c3cccc(F)c3)ccc2N1 (centres unmarked) [ALDHI-2021, 6-[2-[2-(3-fluorophenyl)azetidin-1-yl]ethoxy]-3,4-dihydro-1H-quinolin-2-one]	≥ 100
O=C1CCc2cc(NC(=O)c3sccc3-c3cccc(F)c3)ccc2N1 [ALDHI-1022, 3-(3-fluorophenyl)-N-(2-oxo-3,4-dihydro-1H-quinolin-6-yl)thiophene-2-carboxamide]	≥ 100
O=C1CCc2cc(OCCN3CCCC3c3ccc(F)cc3)ccc2N1 (centres unmarked) [ALDHI-2003, 6-[2-[2-(4-fluorophenyl)pyrrolidin-1-yl]ethoxy]-3,4-dihydro-1H-quinolin-2-one]	10 to 100
O=C1COc2cc(NC(=O)c3scnc3-c3cccc(F)c3)ccc2N1 [ALDHI-1016, 4-(3-fluorophenyl)-N-(3-oxo-4H-1,4-benzoxazin-7-yl)thiazole-5-carboxamide]	≥ 100
O=C1CCc2cc(NC(=O)c3scnc3-c3cccs3)ccc2N1 [ALDHI-1023, N-(2-oxo-3,4-dihydro-1H-quinolin-6-yl)-4-(2-thienyl)thiazole-5-carboxamide]	≥ 100
CN(CCOc1ccc2c(c1)CCC(=O)N2)C(=O)c1cccc(F)c1 [ALDHI-3008, 3-fluoro-N-methyl-N-[2-[(2-oxo-3,4-dihydro-1H-quinolin-6-yl)oxy]ethyl]benzamide]	≥ 100
O=C1COc2cc(OCCN3CCCC3c3cccc(F)c3)ccc2N1 (centres unmarked) [ALDHI-2009, 7-[2-[2-(3-fluorophenyl)pyrrolidin-1-yl]ethoxy]-4H-1,4-benzoxazin-3-one]	≥ 100
O=C1CCc2cc(OCCn3nccc3-c3cccc(F)c3)ccc2N1 [ALDHI-2023, 6-[2-[5-(3-fluorophenyl)pyrazol-1-yl]ethoxy]-3,4-dihydro-1H-quinolin-2-one]	≥ 100
C[C@@H](c1ccccc1)N(CCO)CCOc1ccc2c(c1)CCC(=O)N2 [ALDHI-3007, 6-[2-[2-hydroxyethyl-[(1S)-1-phenylethyl]amino]ethoxy]-3,4-dihydro-1H-quinolin-2-one]	≥ 100
O=C1CCc2cc(NC(=O)c3ocnc3-c3cccc(F)c3)ccc2N1 [ALDHI-1019, 4-(3-fluorophenyl)-N-(2-oxo-3,4-dihydro-1H-quinolin-6-yl)oxazole-5-carboxamide]	≥ 100
O=C1CCc2cc(OCCN3CCCC3c3ccncc3)ccc2N1 (centres unmarked) [ALDHI-2004, 6-[2-[2-(4-pyridyl)pyrrolidin-1-yl]ethoxy]-3,4-dihydro-1H-quinolin-2-one]	≥ 100
O=C1CCc2cc(OCCN3CCCC3c3cccnc3)ccc2N1 (centres unmarked) [ALDHI-2005, 6-[2-[2-(3-pyridyl)pyrrolidin-1-yl]ethoxy]-3,4-dihydro-1H-quinolin-2-one]	≥ 100
Cc1ccc(C2CCCN2CCOc2ccc3c(c2)CCC(=O)N3)cc1 (centres unmarked) [ALDHI-2010, 6-[2-[2-(p-tolyl)pyrrolidin-1-yl]ethoxy]-3,4-dihydro-1H-quinolin-2-one]	≥ 100
Cn1cc(C2CCCN2CCOc2ccc3c(c2)SCC(=O)N3)cn1 (centres unmarked) [ALDHI-2026, 7-[2-[2-(1-methylpyrazol-4-yl)pyrrolidin-1-yl]ethoxy]-4H-1,4-benzothiazin-3-one]	≥ 100
O=C1CCc2cc(OCCN3CC(F)(F)CC3c3cccc(F)c3)ccc2N1 (centres unmarked) [ALDHI-2053, 6-[2-[4,4-difluoro-2-(3-fluorophenyl)pyrrolidin-1-yl]ethoxy]-3,4-dihydro-1H-quinolin-2-one]	≥ 100
O=C1CSc2cc(OCCN3CCCC3c3ccccn3)ccc2N1 (centres unmarked) [ALDHI-2027, 7-[2-[2-(2-pyridyl)pyrrolidin-1-yl]ethoxy]-4H-1,4-benzothiazin-3-one]	≥ 100
O=C1CCc2cc(NC(=O)c3sc(N4CC(O)C4)nc3-c3cccc(F)c3)ccc2N1 [ALDHI-1004, 4-(3-fluorophenyl)-2-(3-hydroxyazetidin-1-yl)-N-(2-oxo-3,4-dihydro-1H-quinolin-6-yl)thiazole-5-carboxamide]	≥ 100
CC1Oc2cc(OCCN3CCCC3c3cccc(F)c3)ccc2NC1=O (centres unmarked) [ALDHI-2044, 7-[2-[2-(3-fluorophenyl)pyrrolidin-1-yl]ethoxy]-2-methyl-4H-1,4-benzoxazin-3-one]	≥ 100
Cc1cccc(-c2ncsc2C(=O)Nc2ccc3c(c2)CCC(=O)N3)c1 [ALDHI-1013, 4-(m-tolyl)-N-(2-oxo-3,4-dihydro-1H-quinolin-6-yl)thiazole-5-carboxamide]	≥ 100
O=C1CCc2cc(OCCN(CCO)Cc3cccnc3)ccc2N1 [ALDHI-3005, 6-[2-[2-hydroxyethyl(3-pyridylmethyl)amino]ethoxy]-3,4-dihydro-1H-quinolin-2-one]	≥ 100
CN(CCOc1ccc2c(c1)CCC(=O)N2)Cc1cccc(F)c1 [ALDHI-3001, 6-[2-[(3-fluorophenyl)methyl-methyl-amino]ethoxy]-3,4-dihydro-1H-quinolin-2-one]	≥ 100

Source: patent US20240174634A1, “Aldehyde Dehydrogenase Inhibitors and Their Therapeutic Use” (priority 2020, published 2024)
